Test results from patent US20240239788A1, “SMALL MOLECULE INHIBITORS OF KRAS G12D MUTANT” (Merck Sharp & Dohme LLC, priority 2021, published 2024).
Structures can show the parent of a compound that is named as a salt. Where two headings read alike, the source gives them in different places.

Legend:
[1] = biological target: KRAS protein containing G12D mutation (Homo sapiens (Human), UniProt P01116, G12D); experiment: SOS-catalyzed nucleotide exchange assay (GNE), TR-FRET; format: biochemical; details: biotinylated KRAS G12D, SOS and GTP, 60-minute incubation
Protocol: Compounds are added to this complex and then after a 60-minute incubation time the mixture is treated with SOS and unlabeled GTP. Small molecule inhibitors stabilize the Bodipy-GDP complex whereas the untreated protein rapidly exchanges Bodipy-GDP for unlabeled GTP resulting in reduced TR-FRET signal.
This solution is referred to as biotinylated KRAS G12D stock solution.

[2] = test system: AsPC-1 cells containing homozygous KRAS-G12D activating mutation; experiment: Cellular phospho-ERK assay with 10% FBS (Examples 107a-256); format: cell-based
Protocol: 5% CO2 for 2 hours. […] Assay plates were read on a EnVision Multimode Plate Reader (PerkinElmer) and the ratio of p-Erk vs total Erk in each well was used as the final readout.

[3] = read-out: IC50 (nM) pERK (cell with FBS 10%), AsPC-1 cells, 10% fetal bovine serum, 2 hours, ratio of p-Erk vs total Erk
[4] = Homo sapiens, ASPC1, 2 h, read-out: IC50 (nM) pERK (cell with FBS 10%), AsPC-1 cells, 10% fetal bovine serum, 2 hours, ratio of p-Erk vs total Erk
[5] = read-out: IC50 (nM) pERK (cell with FBS 10%), AsPC-1 cells, 10% fetal bovine serum, 2 hours, ratio of p-Erk vs total Erk, TFA

KRAS protein containing G12D mutation, sequence (P01116 other isoform, or with tags, fused parts or gaps G12D (already in the parent)): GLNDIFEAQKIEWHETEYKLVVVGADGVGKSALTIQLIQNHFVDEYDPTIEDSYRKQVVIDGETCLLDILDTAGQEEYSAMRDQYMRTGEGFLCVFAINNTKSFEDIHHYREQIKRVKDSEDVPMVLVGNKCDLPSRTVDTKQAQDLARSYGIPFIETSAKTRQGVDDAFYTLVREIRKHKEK

Compound | IC50 [1] | IC50 [2, 3] | IC50 [2, 4] | IC50 [2, 5]
C[C@]12CCC(CN(c3nc(OCC45CCCN4CC(C(F)F)C5)nc4c(F)c(-c5cc(O)cc6cccc(Cl)c56)c(F)cc34)C1)N2 (single isomer, unassigned) [Ex. 173-2a] | 266 nM | 10200 nM |  | 
C[C@]12CCC(CN(c3nc(OC[C@@H]4CC[C@H]5CC(F)(F)CCN45)nc4c(F)c(-c5cc(O)cc6cccc(Cl)c56)c(F)cc34)C1)N2 (single isomer, unassigned) [Ex. 175a] | 738 nM |  | 6450 nM | 
C[C@@]12CC[C@H](CN(c3nc(OC[C@@]45CCCN4C[C@H](F)C5)nc4c(F)c(-c5cc(O)cc6ccc(F)c(Cl)c56)c(F)cc34)C1)N2 (single isomer, unassigned) [Ex. 176a] | 1.91 nM |  | 400 nM | 
C[C@@]12CC[C@H](CN(c3nc(OC[C@@]45CCCN4C[C@H](F)C5)nc4c(F)c(-c5cc(O)cc6ccc(F)c(Cl)c56)c(F)cc34)C1)N2 (single isomer, unassigned) [Ex. 176b] | 110 nM |  | 4360 nM | 
C#Cc1c(F)ccc2cc(O)cc(-c3c(F)cc4c(N5CC6CC[C@@](C)(C5)N6)nc(OC[C@@]56CCCN5C[C@H](F)C6)nc4c3F)c12 (single isomer, unassigned) [Ex. 177a] | 0.8 nM | 12.7 nM |  | 
C#Cc1c(F)ccc2cc(O)cc(-c3c(F)cc4c(N5CC6CC[C@@](C)(C5)N6)nc(OC[C@@]56CCCN5C[C@H](F)C6)nc4c3F)c12 (single isomer, unassigned) [Ex. 177b] | 51.7 nM | 588 nM |  | 
CCc1cccc2cc(O)cc(-c3c(F)cc4c(N5CC6CC[C@@](C)(C5)N6)nc(OC[C@@]56CCCN5C[C@H](F)C6)nc4c3F)c12 (single isomer, unassigned) [Ex. 178a] | 1.73 nM | 108 nM |  | 
CCc1cccc2cc(O)cc(-c3c(F)cc4c(N5CC6CC[C@@](C)(C5)N6)nc(OC[C@@]56CCCN5C[C@H](F)C6)nc4c3F)c12 (single isomer, unassigned) [Ex. 178b] | 210 nM | 4580 nM |  | 
C[C@]12CCC(CN(c3nc(OC[C@@]45CCCN4C[C@H](F)C5)nc4c(F)c(-c5cc(O)cc6cc(F)cc(Cl)c56)c(F)cc34)C1)N2 (single isomer, unassigned) [Ex. 180a] | 6.48 nM | 1040 nM |  | 
C[C@]12CCC(CN(c3nc(OC[C@@]45CCCN4C[C@H](F)C5)nc4c(F)c(-c5cc(O)cc6cc(F)cc(Cl)c56)c(F)cc34)C1)N2 (single isomer, unassigned) [Ex. 180b] | 744 nM | 14200 nM |  | 
C[C@]12CCC(CN(c3nc(OC[C@@]45CCCN4C[C@H](F)C5)nc4c(F)c(-c5cc(O)cc(Cl)c5C(F)(F)F)c(F)cc34)C1)N2 (single isomer, unassigned) [Ex. 183a] | 347 nM | 6070 nM |  | 
C[C@]12CCC(CN(c3nc(OC[C@@]45CCCN4C[C@H](F)C5)nc4c(F)c(-c5cc(O)cc(Cl)c5C(F)(F)F)c(F)cc34)C1)N2 (single isomer, unassigned) [Ex. 183b] | 3.95 nM | 190 nM |  | 
C[C@@]12CC[C@H](CN(c3nc(OC[C@@]45CCCN4C[C@H](F)C5)nc4c(F)c(-c5cc(O)cc6cccc(F)c56)c(F)cc34)C1)N2 (single isomer, unassigned) [Ex. 186a] | 1.49 nM | 180 nM |  | 
C[C@@]12CC[C@H](CN(c3nc(OC[C@@]45CCCN4C[C@H](F)C5)nc4c(F)c(-c5cc(O)cc6cccc(F)c56)c(F)cc34)C1)N2 (single isomer, unassigned) [Ex. 186b] | 185 nM | 3780 nM |  | 
Nc1cc2cccc(Cl)c2c(-c2c(F)cc3c(N4CC5CCC(C4)N5)nc(OC[C@@]45CCCN4C[C@H](F)C5)nc3c2F)n1 (single isomer, unassigned) [Ex. 189a] | 12.8 nM |  | 672 nM | 
C#Cc1cccc2cccc(-c3c(F)cc4c(N5CC6(C)CCC(C)(C5)N6)nc(OC[C@@]56CCCN5C[C@H](F)C6)nc4c3F)c12 (single isomer, unassigned) [Ex. 190a, TFA] | 2510 nM |  |  | 30000 nM
C#Cc1cccc2cccc(-c3c(F)cc4c(N5CC6(C)CCC(C)(C5)N6)nc(OC[C@@]56CCCN5C[C@H](F)C6)nc4c3F)c12 (single isomer, unassigned) [Ex. 190b, TFA] | 72 nM |  |  | 5830 nM
Cc1nc(N)c(C)c(-c2c(F)cc3c(N4CC5CCC(C4)N5)nc(OC[C@@]45CCCN4C[C@H](F)C5)nc3c2F)c1C(F)(F)F (single isomer, unassigned) [Ex. 191a] | 26.5 nM | 288 nM |  | 
Cc1nc(N)c(C)c(-c2c(F)cc3c(N4CC5CCC(C4)N5)nc(OC[C@@]45CCCN4C[C@H](F)C5)nc3c2F)c1C(F)(F)F (single isomer, unassigned) [Ex. 191b] | 2840 nM | 30000 nM |  | 

Compound | IC50 [1] | IC50 [2, 3] | IC50 [2, 4] | IC50 [2, 5]
C#Cc1cccc2cc(O)c(F)c(-c3c(F)cc4c(N5CC6CC[C@@](C)(C5)N6)nc(OC[C@@]56CCCN5C[C@H](F)C6)nc4c3F)c12 (single isomer, unassigned) [Ex. 192a] | 1.17 nM | 114 nM |  | 
C#Cc1cccc2cc(O)c(F)c(-c3c(F)cc4c(N5CC6CC[C@@](C)(C5)N6)nc(OC[C@@]56CCCN5C[C@H](F)C6)nc4c3F)c12 (single isomer, unassigned) [Ex. 192b] | 37 nM | 1570 nM |  | 
Cc1cc(N)nc(-c2c(F)cc3c(N4CC5CC[C@@](C)(C4)N5)nc(OC[C@@]45CCCN4C[C@H](F)C5)nc3c2F)c1C(F)(F)F (single isomer, unassigned) [Ex. 200a] | 72.9 nM |  | 1220 nM | 
CN(C)C[C@@]1(COc2nc(N3C[C@H]4CC[C@@H](C3)N4)c3cc(F)c(-c4c(C(F)(F)F)c(Cl)cc5cnn(C)c45)c(F)c3n2)CC1(F)F (single isomer, unassigned) [Ex. 201b] | 45.9 nM |  | 15600 nM | 
C#Cc1cccc2nc(N)cc(-c3c(F)cc4c(N5CC6CCC(C5)N6)nc(OC[C@@]56CCCN5C[C@H](F)C6)nc4c3F)c12 (single isomer, unassigned) [Ex. 203a] | 380 nM | 3020 nM |  | 
C#Cc1cccc2nc(N)cc(-c3c(F)cc4c(N5CC6CCC(C5)N6)nc(OC[C@@]56CCCN5C[C@H](F)C6)nc4c3F)c12 (single isomer, unassigned) [Ex. 203b] | 3.32 nM | 120 nM |  | 
C#Cc1cccc2cc(O)c(C)c(-c3c(F)cc4c(N5CC6CC[C@@](C)(C5)N6)nc(OC[C@@]56CCCN5C[C@H](F)C6)nc4c3F)c12 (single isomer, unassigned) [Ex. 204a] | 1.13 nM | 64.2 nM |  | 
C#Cc1cccc2cc(O)c(C)c(-c3c(F)cc4c(N5CC6CC[C@@](C)(C5)N6)nc(OC[C@@]56CCCN5C[C@H](F)C6)nc4c3F)c12 (single isomer, unassigned) [Ex. 204b] | 23.4 nM | 443 nM |  | 
C[C@]12CCC(CN(c3nc(OCC4(CN5CC6CCC(C5)O6)CC4)nc4c(F)c(-c5cc(O)cc6cccc(Cl)c56)c(F)cc34)C1)N2 (single isomer, unassigned) [Ex. 208] | 210 nM |  | 30000 nM | 
CC(O)(COc1nc(N2CC3CC[C@@](C)(C2)N3)c2cc(F)c(-c3cc(O)cc4cccc(Cl)c34)c(F)c2n1)CN1CC[C@@H](F)C1 (single isomer, unassigned) [Ex. 209] | 46.1 nM |  | 2910 nM | 
C#Cc1cccc2cccc(-c3c(F)cc4c(N5CC6CC[C@@](C)(C5)N6)nc(OC[C@@]56CCCN5C[C@H](F)C6)nc4c3F)c12 (single isomer, unassigned) [Ex. 211b] | 7.41 nM |  | 2010 nM | 
COCCNC[C@@]1(COc2nc(N3CC4CC[C@@](C)(C3)N4)c3cc(F)c(-c4c(C(F)(F)F)c(C)cc5[nH]ncc45)c(F)c3n2)CC1(F)F (single isomer, unassigned) [Ex. 213] | 4460 nM |  | 25600 nM | 
COCC1CCN(C[C@@]2(COc3nc(N4CC5CC[C@@](C)(C4)N5)c4cc(F)c(-c5cc(O)cc6cccc(Cl)c56)c(F)c4n3)CC2(F)F)C1 (single isomer, unassigned) [Ex. 214a] | 4.95 nM | 3710 nM |  | 
COCC1CCN(C[C@@]2(COc3nc(N4CC5CC[C@@](C)(C4)N5)c4cc(F)c(-c5cc(O)cc6cccc(Cl)c56)c(F)c4n3)CC2(F)F)C1 (single isomer, unassigned) [Ex. 214b] | 180 nM | 9070 nM |  | 
CO[C@@H]1CCN(C[C@@]2(COc3nc(N4CC5CC[C@@](C)(C4)N5)c4cc(F)c(-c5cc(O)cc6cccc(Cl)c56)c(F)c4n3)CC2(F)F)C1 (single isomer, unassigned) [Ex. 215a] | 5.06 nM | 14000 nM |  | 
CO[C@@H]1CCN(C[C@@]2(COc3nc(N4CC5CC[C@@](C)(C4)N5)c4cc(F)c(-c5cc(O)cc6cccc(Cl)c56)c(F)c4n3)CC2(F)F)C1 (single isomer, unassigned) [Ex. 215b] | 429 nM | 2370 nM |  | 
C[C@]12CCC(CN(c3nc(OC[C@]4(CN[C@H]5C[C@@H](O)C5)CC4(F)F)nc4c(F)c(-c5cc(O)cc6cccc(Cl)c56)c(F)cc34)C1)N2 (single isomer, unassigned) [Ex. 216a] | 6.65 nM | 3090 nM |  | 
C[C@]12CCC(CN(c3nc(OC[C@]4(CN[C@H]5C[C@@H](O)C5)CC4(F)F)nc4c(F)c(-c5cc(O)cc6cccc(Cl)c56)c(F)cc34)C1)N2 (single isomer, unassigned) [Ex. 216b] | 804 nM | 7120 nM |  | 
